The numbers were not newly measured in patent US20230061908A1 (priority 2020, published 2023), which cites them from elsewhere.

The structures appear in SMILES notation.

The conditions of the data set: wide distribution to most tissues.

Consider `CCC(CC)COC(=O)[C@H](C)N[P@](=O)(OC[C@H]1O[C@@](C#N)(c2ccc3c(N)ncnn23)[C@H](O)[C@@H]1O)Oc1ccccc1` [Remdesivir], for which the “crossing of the BBB (blood-brain barrier)” value is “does not cross the BBB”.
